Several values for one entry are separate records, joined by “and”; a condition that tells them apart may be missing. Identical values can stand only once. Toxic doses and inconclusive results are not listed. Rule as the data show it: active = T/C of 150% or more; inactive = T/C below 125%.
Test system: L1210 leukemia ip in BDF1 mice, survival T/C
Assay: NCI In Vivo Anticancer Drug Screen. Data for tumor model L1210 Leukemia (intraperitoneal) in B6D2F1 (BDF1) mice
Details: endpoint: mean survival time, higher = longer survival
In short: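 Read-out is survival time, reported as the treated-group measurement over the vehicle-control measurement.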

[1] = dose: 100.0 mg/kg/injection, schedule: Q04DX002 (ip), vehicle: Klucel (hydroxypropylcellulose) (HPC)
[2] = dose: 200.0 mg/kg/injection, schedule: Q04DX002 (ip), vehicle: Klucel (hydroxypropylcellulose) (HPC)
[3] = dose: 100.0 mg/kg/injection, schedule: Q01DX001 (ip), vehicle: saline
[4] = dose: 200.0 mg/kg/injection, schedule: Q01DX001 (ip), vehicle: saline
[5] = dose: 400.0 mg/kg/injection, schedule: Q01DX001 (ip), vehicle: saline
[6] = dose: 100.0 mg/kg/injection, schedule: Q04DX003 (ip), vehicle: saline with Tween-80
[7] = dose: 200.0 mg/kg/injection, schedule: Q04DX003 (ip), vehicle: saline with Tween-80
[8] = dose: 400.0 mg/kg/injection, schedule: Q04DX003 (ip), vehicle: saline with Tween-80
[9] = dose: 50.0 mg/kg/injection, schedule: Q01DX009 (ip), vehicle: saline with Tween-80
[10] = dose: 100.0 mg/kg/injection, schedule: Q01DX009 (ip), vehicle: saline with Tween-80

Measured: T/C

Cc1cn(-c2c(C)c(C)c(-n3c(C)ccc3C)c(C)c2C)cc1C
inactive: dose: 100.0 mg/kg/injection, schedule: Q01DX009 (ip), vehicle: Klucel (hydroxypropylcellulose) (HPC) 86 % of control | dose: 200.0 mg/kg/injection, schedule: Q01DX009 (ip), vehicle: Klucel (hydroxypropylcellulose) (HPC) 93 % of control | dose: 400.0 mg/kg/injection, schedule: Q01DX009 (ip), vehicle: Klucel (hydroxypropylcellulose) (HPC) 90 % of control

O=S(=O)(Cc1ccccc1)N1CCCCC1
inactive: [1] 99 % of control | [2] 99 % of control

CC(C)(C)c1ccc(S(=O)(=O)c2ccc(C(C)(C)C)cc2)cc1
inactive: dose: 100.0 mg/kg/injection, schedule: Q04DX003 (ip), vehicle: Klucel (hydroxypropylcellulose) (HPC) 94 % of control | dose: 200.0 mg/kg/injection, schedule: Q04DX003 (ip), vehicle: Klucel (hydroxypropylcellulose) (HPC) 105 % of control | dose: 400.0 mg/kg/injection, schedule: Q04DX003 (ip), vehicle: Klucel (hydroxypropylcellulose) (HPC) 91 % of control

Cc1ccc(C)c2c1C1=C(CCCC1)S2(=O)=O
inactive: [3] 96 % of control | [4] 102 % of control | [5] 104 % of control

O=C(NO)c1ccccc1F
inactive: [3] 97 % of control | [4] 110 % of control | [5] 93 % of control

O=C1NC(=O)C2C3OC(C(Br)C3Br)C12 (stereo unspecified)
inactive: dose: 100.0 mg/kg/injection, schedule: Q01DX009 (ip), vehicle: acetone 86 % of control | [6] 93 % of control | dose: 200.0 mg/kg/injection, schedule: Q01DX009 (ip), vehicle: acetone 86 % of control | [7] 108 % of control | dose: 400.0 mg/kg/injection, schedule: Q01DX009 (ip), vehicle: acetone 88 % of control | [8] 95 % of control

NC(=O)c1cc(C(=O)O)ccc1N(N)O
inactive: [6] 101 % of control | [7] 101 % of control | [8] 90 % of control

OCC(O)C(O)C(O)C(c1ccc(Cl)cc1)c1ccc(Cl)cc1 (stereo unspecified)
inactive: dose: 50.0 mg/kg/injection, schedule: Q01DX001 (ip), vehicle: saline 104 % of control and 103 % of control and 101 % of control | [3] 102 % of control and 103 % of control and 97 % of control | [4] 98 % of control and 101 % of control and 97 % of control | [5] 96 % of control and 91 % of control and 101 % of control

CCc1ccc(C(C)(C)C)cc1
inactive: [9] 95 % of control | [10] 95 % of control | dose: 200.0 mg/kg/injection, schedule: Q01DX009 (ip), vehicle: saline with Tween-80 107 % of control

CSc1cc(N)nc2n[nH]nc12
inactive: dose: 100.0 mg/kg/injection, schedule: Q01DX001 (ip), vehicle: Klucel (hydroxypropylcellulose) (HPC) 97 % of control | dose: 200.0 mg/kg/injection, schedule: Q01DX001 (ip), vehicle: Klucel (hydroxypropylcellulose) (HPC) 110 % of control

CCCCCCCCCC(=O)OCC1OC(=O)C(C)N(C)C(=O)CN(C)C(=O)C2C(=O)CC(C)N2C(=O)C(C(C)C)NC(=O)C1NC(=O)c1c2nc3c(C(=O)NC4C(=O)NC(C(C)C)C(=O)N5C(C)CC(OC(=O)CCCCCCCCC)C5C(=O)N(C)CC(=O)N(C)C(C(C)C)C(=O)OC4C)ccc(C)c3oc-2c(C)c(=O)c1N (stereo unspecified)
inactive: dose: 0.2 mg/kg/injection, schedule: Q01DX009 (ip), vehicle: Klucel (hydroxypropylcellulose) (HPC) 92 % of control | dose: 0.4 mg/kg/injection, schedule: Q01DX009 (ip), vehicle: Klucel (hydroxypropylcellulose) (HPC) 94 % of control | dose: 0.6 mg/kg/injection, schedule: Q04DX003 (ip), vehicle: Klucel (hydroxypropylcellulose) (HPC) 97 % of control | dose: 0.8 mg/kg/injection, schedule: Q01DX009 (ip), vehicle: Klucel (hydroxypropylcellulose) (HPC) 96 % of control | dose: 1.2 mg/kg/injection, schedule: Q04DX003 (ip), vehicle: Klucel (hydroxypropylcellulose) (HPC) 95 % of control | dose: 1.6 mg/kg/injection, schedule: Q01DX001 (ip), vehicle: Klucel (hydroxypropylcellulose) (HPC) 92 % of control | dose: 1.6 mg/kg/injection, schedule: Q01DX009 (ip), vehicle: Klucel (hydroxypropylcellulose) (HPC) 92 % of control | dose: 2.4 mg/kg/injection, schedule: Q04DX003 (ip), vehicle: Klucel (hydroxypropylcellulose) (HPC) 90 % of control | dose: 3.2 mg/kg/injection, schedule: Q01DX001 (ip), vehicle: Klucel (hydroxypropylcellulose) (HPC) 92 % of control | dose: 3.2 mg/kg/injection, schedule: Q01DX009 (ip), vehicle: Klucel (hydroxypropylcellulose) (HPC) 89 % of control | dose: 4.8 mg/kg/injection, schedule: Q04DX003 (ip), vehicle: Klucel (hydroxypropylcellulose) (HPC) 91 % of control | dose: 6.4 mg/kg/injection, schedule: Q01DX001 (ip), vehicle: Klucel (hydroxypropylcellulose) (HPC) 91 % of control | dose: 9.6 mg/kg/injection, schedule: Q04DX003 (ip), vehicle: Klucel (hydroxypropylcellulose) (HPC) 87 % of control | dose: 12.8 mg/kg/injection, schedule: Q01DX001 (ip), vehicle: Klucel (hydroxypropylcellulose) (HPC) 89 % of control

CC(=O)Nc1ccc(Cl)cc1C(=O)c1ccccc1
inactive: [1] 96 % of control | [2] 108 % of control | dose: 400.0 mg/kg/injection, schedule: Q04DX002 (ip), vehicle: Klucel (hydroxypropylcellulose) (HPC) 96 % of control

OCC1OC(OCC2OC(OC3(CO)OC(CO)C(O)C3O)C(O)C(O)C2O)C(O)C(O)C1O (stereo unspecified)
inactive: dose: 100.0 mg/kg/injection, schedule: Q04DX003 (ip), vehicle: saline 101 % of control | dose: 200.0 mg/kg/injection, schedule: Q04DX003 (ip), vehicle: saline 106 % of control | dose: 400.0 mg/kg/injection, schedule: Q04DX003 (ip), vehicle: saline 104 % of control

COc1ccc(CC(=O)NCCc2ccccc2)cc1OC
inactive: dose: 12.5 mg/kg/injection, schedule: Q01DX009 (ip), vehicle: saline with Tween-80 92 % of control | dose: 25.0 mg/kg/injection, schedule: Q01DX009 (ip), vehicle: saline with Tween-80 92 % of control | [9] 103 % of control and 92 % of control | [10] 105 % of control
